The results in this text go back to patent publication US20050163815A1, “Use of plant materials as a terrestrial molluscicidal and/or molloscrepellant agent” (priority 2002, published 2005).

This experiment deals with Deroceras reticulatum. Briefly: Laboratory terraria barrier test on blotting paper (winter wheat seed hollowing, slug mortality). The note with it: for slug mortality: barrier on blotting paper. Format: in vivo. On the procedure:
Plastic trays (0.07 m^2) were lined with unbleached blotting paper and saturated with de-ionised water. Three groups of eight winter wheat seeds were placed into each tray and each group surrounded with approximately 1-2 g of test material, forming a barrier with approximately 1 cm diameter. Four slugs (Deroceras reticulatum) pre-starved for 24-48 hours were introduced to the trays. The tests were performed under controlled conditions (12 hours light 15° C.: 12 hours dark 15° C., 90% humidity). Five replicates were prepared per condition.
The trays were observed daily, for seven days, for seed hollowing and mortality. After the seven days, the slugs were replaced with naive slugs and the test run for a further seven days. Mortality was indicated by failure to respond to 12-volt D.C. stimuli.
Note: i) In all the experiments, a negative control was prepared consisting of slugs only, sawdust only, or “alcoholic” sawdust. ii) Metaldehyde (4%) was used as a positive control, to compare the toxicity properties of the 100% plant raw materials, rather than as a physical barrier.
The method is identical to that used in Example 1 above.

The molecule `CC1OC(C)OC(C)OC(C)O1` (stereo not drawn) [metaldehyde (4%), metaldehyde] had a seed hollowing (barrier around winter wheat seeds on blotting paper, first seven days (days 1 to 7)) of 1%. In addition, the slug mortality by setting is: (days 8 to 14) 100%; (first seven days) 90%.
